# Patent US10577363B2, “Substituted piperidine compounds” (EPIZYME, INC., priority 2014, dated 2020)
# Molecular target: SMYD3 (Homo sapiens (Human), UniProt Q9H7B4)
# Experiment: SMYD3 biochemical assay (SPA, 3H-SAM methylation of MEKK2 protein substrate)
# Conditions: read-out: SMYD3 Biochem IC50 (μM)*
# Summary of the method: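 SPA methyltransferase format: tag-cleaved human SMYD3, insect-cell GST-MEKK2 protein substrate, 3H-SAM donor, 30 min RT enzyme–compound preincubation, 100 uM cold SAM quench.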
row,Structure (SMILES),IC50 [µM]
1,"C[C@@H]1CC(NC(=O)c2cc(C3CC3)on2)CCN1C(=O)[C@@H](CN)Cc1ccc(O)cc1 (stereo partly drawn) [compound 357, N-((2R)-1-((R)-3-amino-2-(4-hydroxybenzyl)propanoyl)-2-methylpiperidin-4-yl)-5-cyclopropylisoxazole-3-carboxamide]",1.17
2,"C[C@H](C(=O)N1CC[C@@H](NC(=O)c2cc(C3CC3)on2)C[C@@H]1C)C1CCNCC1 [compound 358, 5-cyclopropyl-N-((2S,4R)-2-methyl-1-((S)-2-(piperidin-4-yl)propanoyl)piperidin-4-yl)isoxazole-3-carboxamide]",3.4
3,"C[C@@H](C(=O)N1CC[C@@H](NC(=O)c2cc(C3CC3)on2)C[C@@H]1C)C1CCNCC1 [compound 359, 5-cyclopropyl-N-((2S,4R)-2-methyl-1-((R)-2-(piperidin-4-yl)propanoyl)piperidin-4-yl)isoxazole-3-carboxamide]",1.46
4,"O=C(N[C@@H]1CCN(C(=O)CC2CCNCC2)C[C@@H]1CO)c1cc(C2CC2)on1 [compound 362, 5-cyclopropyl-N-((3S,4R)-3-(hydroxymethyl)-1-(2-(piperidin-4-yl)acetyl)piperidin-4-yl)isoxazole-3-carboxamide]",2.95
5,"N[C@H]1CC[C@H](C(=O)N2CC[C@@H](NC(=O)c3cc(C4CC4)on3)C[C@@H]2CO)CC1 [compound 363, N-((2R,4R)-1-((1r,4R)-4-aminocyclohexane-1-carbonyl)-2-(hydroxymethyl)piperidin-4-yl)-5-cyclopropylisoxazole-3-carboxamide]",1.99
6,"N[C@H]1CC[C@H](C(=O)N2CC[C@H](NC(=O)c3cc(C4CC4)on3)C[C@H]2Cc2ccccc2)CC1 [compound 364, N-((2R,4S)-1-((1r,4R)-4-aminocyclohexane-1-carbonyl)-2-benzylpiperidin-4-yl)-5-cyclopropylisoxazole-3-carboxamide]",4.57
7,"C[C@H]1C[C@H](NC(=O)c2cc(C3CC3)on2)CCN1C(=O)c1cccc(C(C)(C)N)c1 [compound 366, N-((2S,4R)-1-(3-(2-aminopropan-2-yl)benzoyl)-2-methylpiperidin-4-yl)-5-cyclopropylisoxazole-3-carboxamide]",2.75
8,"C[C@H]1C[C@H](NC(=O)c2cc(C3CC3)on2)CCN1C(=O)c1ccc(C(C)(C)N)cc1 [compound 369, N-((2S,4R)-1-(4-(2-aminopropan-2-yl)benzoyl)-2-methylpiperidin-4-yl)-5-cyclopropylisoxazole-3-carboxamide]",5.87
9,"C[C@@H]1C[C@@H](NC(=O)c2cc(C3CC3)on2)CCN1C(=O)c1ccc(C(C)(C)N)cc1 [compound 371, N-((2R,4S)-1-(4-(2-aminopropan-2-yl)benzoyl)-2-methylpiperidin-4-yl)-5-cyclopropylisoxazole-3-carboxamide]",4.95
10,"C[C@H]1C[C@H](NC(=O)c2cc(C3CC3)on2)CCN1C(=O)C1CCCC(CN)C1 (stereo partly drawn) [compound 372, N-((2S,4R)-1-(3-(aminomethyl)cyclohexane-1-carbonyl)-2-methylpiperidin-4-yl)-5-cyclopropylisoxazole-3-carboxamide]",5.89
11,"C[C@@H]1C[C@@H](NC(=O)c2cc(C3CC3)on2)CCN1S(=O)(=O)Cc1cccnc1 [compound 374, 5-cyclopropyl-N-((2R,4S)-2-methyl-1-((pyridin-3-ylmethyl)sulfonyl)piperidin-4-yl)isoxazole-3-carboxamide]",> 10
12,"O=C(N[C@H]1CCN(C(=O)CC2CCNCC2)[C@H](Cc2ccccc2)C1)c1cc(C2CC2)on1 [compound 375, N-((2R,4S)-2-benzyl-1-(2-(piperidin-4-yl)acetyl)piperidin-4-yl)-5-cyclopropylisoxazole-3-carboxamide]",1.83
13,"O=C(N[C@@H]1CCN(C(=O)CC2CCNCC2)[C@@H](Cc2ccccc2)C1)c1cc(C2CC2)on1 [compound 376, N-((2S,4R)-2-benzyl-1-(2-(piperidin-4-yl)acetyl)piperidin-4-yl)-5-cyclopropylisoxazole-3-carboxamide]",1.32
14,"C[C@H]1C[C@H](NC(=O)c2cc(C3CC3)on2)CCN1S(=O)(=O)c1ccccc1 [compound 379, 5-cyclopropyl-N-((2S,4R)-2-methyl-1-(phenylsulfonyl)piperidin-4-yl)isoxazole-3-carboxamide]",3.35
15,"C[C@H]1C[C@H](NC(=O)c2cc(C3CC3)on2)CCN1S(=O)(=O)c1cccc(C#N)c1 [compound 380, N-((2S,4R)-1-((3-cyanophenyl)sulfonyl)-2-methylpiperidin-4-yl)-5-cyclopropylisoxazole-3-carboxamide]",0.323
16,"N[C@H]1CC[C@H](C(=O)N2CC[C@@H](NC(=O)c3cc(C4CC4)on3)[C@H](CO)C2)CC1 [compound 382, N-((3R,4R)-1-((1r,4R)-4-aminocyclohexane-1-carbonyl)-3-(hydroxymethyl)piperidin-4-yl)-5-cyclopropylisoxazole-3-carboxamide]",2.54
17,"O=C(N[C@@H]1CCN(C(=O)CC2CCNCC2)C[C@H]1CO)c1cc(C2CC2)on1 [compound 383, 5-cyclopropyl-N-((3R,4R)-3-(hydroxymethyl)-1-(2-(piperidin-4-yl)acetyl)piperidin-4-yl)isoxazole-3-carboxamide]",3.02
18,"N[C@H]1CC[C@H](C(=O)N2CC[C@@H](NC(=O)c3cc(C4CC4)on3)C[C@H]2CO)CC1 [compound 384, N-((2S,4R)-1-((1r,4S)-4-aminocyclohexane-1-carbonyl)-2-(hydroxymethyl)piperidin-4-yl)-5-cyclopropylisoxazole-3-carboxamide]",4.04
19,"C[C@@H]1CN(S(=O)(=O)CCCN)CC[C@H]1NC(=O)c1cc(C2CC2)on1 [compound 388, N-((3R,4R)-1-((3-aminopropyl)sulfonyl)-3-methylpiperidin-4-yl)-5-cyclopropylisoxazole-3-carboxamide]",0.462
20,"N[C@H]1CC[C@H](C(=O)N2CC[C@@H](NC(=O)c3cc(C4CC4)on3)C[C@@H]2Cc2ccccc2)CC1 [compound 389, N-((2S,4R)-1-((1r,4S)-4-aminocyclohexane-1-carbonyl)-2-benzylpiperidin-4-yl)-5-cyclopropylisoxazole-3-carboxamide]",> 10
21,"C[C@@H]1C[C@@H](NC(=O)c2cc(C3CC3)on2)CCN1C(=O)c1cccc(C(C)(C)N)c1 [compound 392, N-((2R,4S)-1-(3-(2-aminopropan-2-yl)benzoyl)-2-methylpiperidin-4-yl)-5-cyclopropylisoxazole-3-carboxamide]",> 10
22,"COCC(C)S(=O)(=O)N1CC[C@H](NC(=O)c2cc(C3CC3)on2)C[C@@H]1C (stereo partly drawn) [compound 393, 5-cyclopropyl-N-((2S,4S)-1-((1-methoxypropan-2-yl)sulfonyl)-2-methylpiperidin-4-yl)isoxazole-3-carboxamide]",3.16
23,"CC(C)OCCS(=O)(=O)N1CC[C@@H](NC(=O)c2cc(C3CC3)on2)C[C@@H]1C [compound 394, 5-cyclopropyl-N-((2S,4R)-1-((2-isopropoxyethyl)sulfonyl)-2-methylpiperidin-4-yl)isoxazole-3-carboxamide]",> 10
24,"O=C(N[C@@H]1CCN(S(=O)(=O)CCN2CCCC2)[C@@H](Cc2ccccc2)C1)c1cc(C2CC2)on1 [compound 406, N-((2S,4R)-2-benzyl-1-((2-(pyrrolidin-1-yl)ethyl)sulfonyl)piperidin-4-yl)-5-cyclopropylisoxazole-3-carboxamide]",3.41
